This note sets out measurements from patent US20240043404A1 (AbbVie Inc., priority 2009, published 2024).

pEC50: −log10 of the molar value.

The test system of this test is RS4;11 cells. Briefly: RS4;11 cell viability assay (CellTiter Glo).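 Note: acute lymphoblastic leukemia line RS4,11, EC50 derived from percentage of viable cells after treatment relative to untreated controls, cell killing taken as a measure of Bcl-2 inhibition.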 Format: cell-based, human. The conditions noted are these: Homo sapiens, RS4-11, 48 h, 50,000 cells per well, 10% human serum, 48 hours; read-out: RS4; 11 EC50 Values. Background: ATP-based viability assays read luminescence as a measure of living cells.
Experimental: The acute lymphoblastic leukemia (ALL) cell line RS4;11 was used as the primary human cell line to assess the cellular activity of Bcl-2 selective agents in vitro and their efficacy in vivo.
Cell cytotoxicity EC50 values were assessed using CellTiter Glo (Promega) according to the manufacturer's recommendations. The EC50 values were determined as a percentage of viable cells following treatment compared to the untreated control cells.
On to `CC1(C)CCC(CN2CCN(c3ccc(C(=O)NS(=O)(=O)c4ccc(O[C@@H]5CCN(C(CF)CF)C5)c([N+](=O)[O-])c4)c(Oc4cnc5[nH]ccc5c4)c3)CC2)=C(c2ccc(Cl)cc2)C1` [Example 235, 4-(4-{[2-(4-chlorophenyl)-4,4-dimethylcyclohex-1-en-1-yl]methyl}piperazin-1-yl)-N-[(4-{[(3R)-1-(1,3-difluoropropan-2-yl)pyrrolidin-3-yl]oxy}-3-nitrophenyl)sulfonyl]-2-(1H-pyrrolo[2,3-b]pyridin-5-yloxy)benzamide], for which the pEC50 was 7.49.

Turning to `CC1(C)CCC(CN2CCN(c3ccc(C(=O)NS(=O)(=O)c4ccc(NN5CCN(C6COC6)CC5)c([N+](=O)[O-])c4)c(Oc4cnc5[nH]ccc5c4)c3)CC2)=C(c2ccc(Cl)cc2)C1` [Example 236, 4-(4-{[2-(4-chlorophenyl)-4,4-dimethylcyclohex-1-en-1-yl]methyl}piperazin-1-yl)-N-[(3-nitro-4-{[4-(oxetan-3-yl)piperazin-1-yl]amino}phenyl)sulfonyl]-2-(1H-pyrrolo[2,3-b]pyridin-5-yloxy)benzamide], the pEC50 was 7.37. Next, `CC1(C)CCC(CN2CCN(c3ccc(C(=O)NS(=O)(=O)c4ccc(NN5CCN(C6CCOCC6)CC5)c([N+](=O)[O-])c4)c(Oc4cnc5[nH]ccc5c4)c3)CC2)=C(c2ccc(Cl)cc2)C1` [Example 237, 4-(4-{[2-(4-chlorophenyl)-4,4-dimethylcyclohex-1-en-1-yl]methyl}piperazin-1-yl)-N-[(3-nitro-4-{[4-(tetrahydro-2H-pyran-4-yl)piperazin-1-yl]amino}phenyl)sulfonyl]-2-(1H-pyrrolo[2,3-b]pyridin-5-yloxy)benzamide]: 7.27; `CC1(C)CCC(CN2CCN(c3ccc(C(=O)NS(=O)(=O)c4ccc(N[C@@H]5CCOC5)c([N+](=O)[O-])c4)c(Oc4cnc5[nH]ccc5c4)c3)CC2)=C(c2ccc(Cl)cc2)C1` [Example 238, 4-(4-{[2-(4-chlorophenyl)-4,4-dimethylcyclohex-1-en-1-yl]methyl}piperazin-1-yl)-N-({3-nitro-4-[(3R)-tetrahydrofuran-3-ylamino]phenyl}sulfonyl)-2-(1H-pyrrolo[2,3-b]pyridin-5-yloxy)benzamide]: 6.99. Next, `CC1(C)CCC(CN2CCN(c3ccc(C(=O)NS(=O)(=O)c4ccc(NCC5CCC(F)(F)CC5)c([N+](=O)[O-])c4)c(Oc4cnc5[nH]ccc5c4)c3)CC2)=C(c2ccc(Cl)cc2)C1` [Example 239, 4-(4-{[2-(4-chlorophenyl)-4,4-dimethylcyclohex-1-en-1-yl]methyl}piperazin-1-yl)-N-[(4-{[(4,4-difluorocyclohexyl)methyl]amino}-3-nitrophenyl)sulfonyl]-2-(1H-pyrrolo[2,3-b]pyridin-5-yloxy)benzamide]: 7.63; `CC1(C)CCC(CN2CCN(c3ccc(C(=O)NS(=O)(=O)c4ccc(NC5CCN(C(C)(C)C)CC5)c(S(=O)(=O)C(F)(F)F)c4)c(Oc4cnc5[nH]ccc5c4)c3)CC2)=C(c2ccc(Cl)cc2)C1` [Example 240, N-({4-[(1-tert-butylpiperidin-4-yl)amino]-3-[(trifluoromethyl)sulfonyl]phenyl}sulfonyl)-4-(4-{[2-(4-chlorophenyl)-4,4-dimethylcyclohex-1-en-1-yl]methyl}piperazin-1-yl)-2-(1H-pyrrolo[2,3-b]pyridin-5-yloxy)benzamide]: 7.76; `CC1(C)CCC(CN2CCN(c3ccc(C(=O)NS(=O)(=O)c4ccc(NCC5CN(C6COC6)CCO5)c(S(=O)(=O)C(F)(F)F)c4)c(Oc4cnc5[nH]ccc5c4)c3)CC2)=C(c2ccc(Cl)cc2)C1` (stereo not drawn) [Example 241, 4-(4-{[2-(4-chlorophenyl)-4,4-dimethylcyclohex-1-en-1-yl]methyl}piperazin-1-yl)-N-({4-({[4-(oxetan-3-yl)morpholin-2-yl]methyl}amino)-3-[(trifluoromethyl)sulfonyl]phenyl}sulfonyl)-2-(1H-pyrrolo[2,3-b]pyridin-5-yloxy)benzamide]: 6.94. To `CC1(C)CCC(CN2CCN(c3ccc(C(=O)NS(=O)(=O)c4cnc(NCC5(F)CCOCC5)c(Cl)c4)c(Oc4cnc5[nH]ccc5c4)c3)CC2)=C(c2ccc(Cl)cc2)C1` [Example 242, N-[(5-chloro-6-{[(4-fluorotetrahydro-2H-pyran-4-yl)methyl]amino}pyridin-3-yl)sulfonyl]-4-(4-{[2-(4-chlorophenyl)-4,4-dimethylcyclohex-1-en-1-yl]methyl}piperazin-1-yl)-2-(1H-pyrrolo[2,3-b]pyridin-5-yloxy)benzamide] belongs 6.65; to `CC1(C)CCC(CN2CCN(c3ccc(C(=O)NS(=O)(=O)c4cnc(NC5CCN(C6CC6)CC5)c(Cl)c4)c(Oc4cnc5[nH]ccc5c4)c3)CC2)=C(c2ccc(Cl)cc2)C1` [Example 243, N-({5-chloro-6-[(1-cyclopropylpiperidin-4-yl)amino]pyridin-3-yl}sulfonyl)-4-(4-{[2-(4-chlorophenyl)-4,4-dimethylcyclohex-1-en-1-yl]methyl}piperazin-1-yl)-2-(1H-pyrrolo[2,3-b]pyridin-5-yloxy)benzamide], 6.09; to `CC1(C)CCC(CN2CCN(c3ccc(C(=O)NS(=O)(=O)c4cnc(OC[C@@H]5CN(CC#N)CCO5)c(Cl)c4)c(Oc4cnc5[nH]ccc5c4)c3)CC2)=C(c2ccc(Cl)cc2)C1` [Example 244, N-[(5-chloro-6-{[(2S)-4-(cyanomethyl)morpholin-2-yl]methoxy}pyridin-3-yl)sulfonyl]-4-(4-{[2-(4-chlorophenyl)-4,4-dimethylcyclohex-1-en-1-yl]methyl}piperazin-1-yl)-2-(1H-pyrrolo[2,3-b]pyridin-5-yloxy)benzamide], 6.10. Turning to `CN(C)CC(=O)N1CCO[C@H](COc2ncc(S(=O)(=O)NC(=O)c3ccc(N4CCN(CC5=C(c6ccc(Cl)cc6)CC(C)(C)CC5)CC4)cc3Oc3cnc4[nH]ccc4c3)cc2Cl)C1` [Example 245, N-[(5-chloro-6-{[(2S)-4-(N,N-dimethylglycyl)morpholin-2-yl]methoxy}pyridin-3-yl)sulfonyl]-4-(4-{[2-(4-chlorophenyl)-4,4-dimethylcyclohex-1-en-1-yl]methyl}piperazin-1-yl)-2-(1H-pyrrolo[2,3-b]pyridin-5-yloxy)benzamide], the pEC50 is 7.08. In the case of `CC1(C)CCC(CN2CCN(c3ccc(C(=O)NS(=O)(=O)c4cnc(OC[C@H]5CN(CC#N)CCO5)c(Cl)c4)c(Oc4cnc5[nH]ccc5c4)c3)CC2)=C(c2ccc(Cl)cc2)C1` [Example 246, N-[(5-chloro-6-{[(2R)-4-(cyanomethyl)morpholin-2-yl]methoxy}pyridin-3-yl)sulfonyl]-4-(4-{[2-(4-chlorophenyl)-4,4-dimethylcyclohex-1-en-1-yl]methyl}piperazin-1-yl)-2-(1H-pyrrolo[2,3-b]pyridin-5-yloxy)benzamide], the pEC50 was 6.40. To `CN(C)CC(=O)N1CCO[C@@H](COc2ncc(S(=O)(=O)NC(=O)c3ccc(N4CCN(CC5=C(c6ccc(Cl)cc6)CC(C)(C)CC5)CC4)cc3Oc3cnc4[nH]ccc4c3)cc2Cl)C1` [Example 247, N-[(5-chloro-6-{[(2R)-4-(N,N-dimethylglycyl)morpholin-2-yl]methoxy}pyridin-3-yl)sulfonyl]-4-(4-{[2-(4-chlorophenyl)-4,4-dimethylcyclohex-1-en-1-yl]methyl}piperazin-1-yl)-2-(1H-pyrrolo[2,3-b]pyridin-5-yloxy)benzamide] belongs 7.03; to `CC1(C)CCC(CN2CCN(c3ccc(C(=O)NS(=O)(=O)c4cnc(OCC5(F)CCOCC5)c(F)c4)c(Oc4cnc5[nH]ccc5c4)c3)CC2)=C(c2ccc(Cl)cc2)C1` [Example 248, 4-(4-{[2-(4-chlorophenyl)-4,4-dimethylcyclohex-1-en-1-yl]methyl}piperazin-1-yl)-N-({5-fluoro-6-[(4-fluorotetrahydro-2H-pyran-4-yl)methoxy]pyridin-3-yl}sulfonyl)-2-(1H-pyrrolo[2,3-b]pyridin-5-yloxy)benzamide], 7.00; to `CC1(C)CCC(CN2CCN(c3ccc(C(=O)NS(=O)(=O)c4cnc(OCC(C)(CO)CO)c(Cl)c4)c(Oc4cnc5[nH]ccc5c4)c3)CC2)=C(c2ccc(Cl)cc2)C1` [Example 250, N-({5-chloro-6-[3-hydroxy-2-(hydroxymethyl)-2-methylpropoxy]pyridin-3-yl}sulfonyl)-4-(4-{[2-(4-chlorophenyl)-4,4-dimethylcyclohex-1-en-1-yl]methyl}piperazin-1-yl)-2-(1H-pyrrolo[2,3-b]pyridin-5-yloxy)benzamide], below 6.00. To `CC1(C)CCC(CN2CCN(c3ccc(C(=O)NS(=O)(=O)c4ccc(OCC5(F)CCOCC5)nc4)c(Oc4cnc5[nH]ccc5c4)c3)CC2)=C(c2ccc(Cl)cc2)C1` [Example 251, 4-(4-{[2-(4-chlorophenyl)-4,4-dimethylcyclohex-1-en-1-yl]methyl}piperazin-1-yl)-N-({6-[(4-fluorotetrahydro-2H-pyran-4-yl)methoxy]pyridin-3-yl}sulfonyl)-2-(1H-pyrrolo[2,3-b]pyridin-5-yloxy)benzamide] belongs 6.04. Next, `CC1(C)CCC(CN2CCN(c3ccc(C(=O)NS(=O)(=O)c4ccc(NCC5CN(C(CF)CF)CCO5)c([N+](=O)[O-])c4)c(Oc4cnc5[nH]ccc5c4)c3)CC2)=C(c2ccc(Cl)cc2)C1` (stereo not drawn) [Example 252, 4-(4-{[2-(4-chlorophenyl)-4,4-dimethylcyclohex-1-en-1-yl]methyl}piperazin-1-yl)-N-{[4-({[4-(1,3-difluoropropan-2-yl)morpholin-2-yl]methyl}amino)-3-nitrophenyl]sulfonyl}-2-(1H-pyrrolo[2,3-b]pyridin-5-yloxy)benzamide]: 8.46. For `CC1(C)CCC(CN2CCN(c3ccc(C(=O)NS(=O)(=O)c4cnc(OCC5CCN(CC#N)CC5)c(Cl)c4)c(Oc4cnc5[nH]ccc5c4)c3)CC2)=C(c2ccc(Cl)cc2)C1` [Example 253, N-[(5-chloro-6-{[1-(cyanomethyl)piperidin-4-yl]methoxy}pyridin-3-yl)sulfonyl]-4-(4-{[2-(4-chlorophenyl)-4,4-dimethylcyclohex-1-en-1-yl]methyl}piperazin-1-yl)-2-(1H-pyrrolo[2,3-b]pyridin-5-yloxy)benzamide], the pEC50 was 7.30.
